Assay results published in patent publication US9725414B2, “Fungicidal N-bicycloalkyl and N-tricycloalkyl pyrazole-4-(thio)carboxamide derivatives” (priority 2011, dated 2017).

Tests used:
[1] = tested on: Puccinia triticina; test: Example L: in vivo preventive test on Puccinia triticina (wheat); conditions: 500 ppm of active ingredient, evaluated 8 days after inoculation
Method: In Vivo Preventive Test on Puccinia triticina (Wheat)
Solvent: 49 parts by weight of N,N-dimethylacetamide
Emulsifier: 1 part by weight of alkylaryl polyglycol ether
To produce a suitable preparation of active compound, 1 part by weight of active compound or active compound combination is mixed with the stated amounts of solvent and emulsifier, and the concentrate is diluted with water to the desired concentration.
To test for preventive activity, young plants are sprayed with the preparation of active compound or active compound combination at the stated rate of application.
After the spray coating has been dried, the plants are sprayed with a spore suspension of Puccinia triticina.
The plants remain for 48 hours in an incubation cabinet at approximately 20° C. and a relative atmospheric humidity of approximately 100%.
The plants are placed in the greenhouse at a temperature of approximately 20° C. and a relative atmospheric humidity of approximately 80%.
The test is evaluated 8 days after the inoculation. 0% means an efficacy which corresponds to that of the untreated control, while an efficacy of 100% means that no disease is observed.

[2] = tested on: Botrytis cinerea; test: Example P: in vivo preventive test on Botrytis cinerea (grey mould), gherkin plants; conditions: 500 ppm of active ingredient, grading 4 to 5 days after contamination
How it was run: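 Gherkin plants at Z11 cotyledon stage sprayed preventively with active ingredient, then inoculated 24 h later with B. cinerea spores (50 000/mL) in PDB/fructose nutrient solution. Incubation at 17 °C and 90% RH; % efficacy graded 4–5 days post-inoculation against solvent-treated controls.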

[3] = tested on: Blumeria graminis f.sp. hordei; test: Example J: in vivo preventive test on Blumeria graminis (barley); conditions: 500 ppm of active ingredient, evaluated 7 days after inoculation
Method: (§1) In Vivo Preventive Test on Blumeria graminis (Barley) Solvent: 49 parts by weight of N,N-dimethylacetamide Emulsifier: 1 part by weight of alkylaryl polyglycol ether To produce a suitable preparation of active compound, 1 part by weight of active compound or active compound combination is mixed with the stated amounts of solvent and emulsifier, and the concentrate is diluted with water to the desired concentration. To test for preventive activity, young plants are sprayed with the preparation of active compound or active compound combination at the stated rate of application. After the spray coating has been dried, the plants are dusted with spores of Blumeria graminis f.sp. hordei.

[4] = tested on: Leptosphaeria nodorum; test: Example K: in vivo preventive test on Leptosphaeria nodorum (wheat); conditions: 500 ppm of active ingredient, evaluated 8 days after inoculation
Method: as §1, with “Leptosphaeria nodorum (Wheat)” for “Blumeria graminis (Barley)”, “sprayed” for “dusted”, “a spore suspension” for “spores”, “Leptosphaeria nodorum. The plants remain for 48 hours in an incubation cabinet at approximately 20° C. and a relative atmospheric humidity of approximately 100%.” for “Blumeria graminis f.sp. hordei.”

[5] = tested on: Septoria tritici; test: Example H: in vivo preventive test on Septoria tritici (wheat), N,N-dimethylacetamide/emulsifier preparation; conditions: 500 ppm of active ingredient, evaluated 21 days after inoculation
Method: as §1, with “Septoria tritici (Wheat)” for “Blumeria graminis (Barley)”, “sprayed” for “dusted”, “a spore suspension” for “spores”, “Septoria tritici. The plants remain for 48 hours in an incubation cabinet at approximately 20° C. and a relative atmospheric humidity of approximately 100% and afterwards for 60 hours at approximately 15° C. in a translucent incubation cabinet at a relative atmospheric humidity of approximately 100%.” for “Blumeria graminis f.sp. hordei.”

[6] = log P by HPLC on reversed-phase column (C 18), EEC Directive 79831 Annex V.A8; type: physicochemical; conditions: HPLC reversed-phase C 18, 40° C., 0.1% aqueous formic acid and acetonitrile gradient; several values = mixture of two or more isomers
How it was run: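 Reversed-phase C18 HPLC at 40° C, 0.1% aqueous formic acid/acetonitrile linear gradient 10% to 90% acetonitrile, per EEC Directive 79831 Annex V.A8. log P obtained from retention time by linear interpolation between unbranched alkan-2-ones (C3-C16) of known log P.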

[7] = tested on: Fusarium nivale (var. majus); test: Example N: in vivo preventive test on Fusarium nivale (wheat); conditions: 500 ppm of active ingredient, evaluated 5 days after inoculation
Method: as §1, with “Fusarium nivale (Wheat)” for “Blumeria graminis (Barley)”, “slightly injured by using a sandblast and afterwards they are sprayed” for “dusted”, “a conidia suspension” for “spores”, “Fusarium nivale (var. majus). The plants are placed in the greenhouse under a translucent incubation cabinet at a temperature of approximately 10° C. and a relative atmospheric humidity of approximately 100%.” for “Blumeria graminis f.sp. hordei.”

[8] = tested on: Septoria tritici; test: Example I: in vivo preventive test on Septoria tritici (wheat), acetone/tween/DMSO preparation; conditions: 500 ppm of active ingredient, grading 24 days after contamination
How it was run: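 Scipion wheat grown at 22° C, sprayed at 1-leaf stage (10 cm); controls received acetone/tween/DMSO/water without active. Inoculated 24 h later with S. tritici spores (500 000/mL), held 72 h at 18° C, 100% RH, then 21 days at 90% RH. % efficacy vs controls scored 24 days post-inoculation.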

Q: Which results are given for `Cn1nc(C(F)F)c(C(=O)N(C2CC2)C2CC3CCCCC3C2)c1F` (stereo not shown) [Example 12]?
A: Efficacy [1]: 100%; Efficacy [2]: 100%; Efficacy [3]: 100%; Efficacy [4]: 93%; Efficacy [5]: 100%; logP [6]: 4.11; Efficacy [7]: 100%; Efficacy [8]: 100%

Q: What does the source list for `Cn1nc(C(F)F)c(C(=O)N(C2CC2)C2CCCC3CCCC32)c1F` (stereo not shown) [Example 19]?
A: Efficacy [1]: 100%; Efficacy [2]: 100%; Efficacy [3]: 100%; Efficacy [4]: 100%; Efficacy [5]: 100%; logP [6]: 3.99; Efficacy [7]: 100%; Efficacy [8]: 96%

Q: Which results are given for `Cn1nc(C(F)F)c(C(=O)N(CC2CCC3CCCC3C2)C2CC2)c1F` (stereo not shown) [Example 62]?
A: Efficacy [1]: 100%; Efficacy [3]: 100%; Efficacy [4]: 100%; Efficacy [5]: 100%; logP [6]: 4.41; Efficacy [7]: 100%; Efficacy [8]: 100%

Q: With `Cn1nc(C(F)F)c(C(=O)N(CC2CC3CCC2C3)C2CC2)c1F` (stereo not shown) [Example 71] as the compound, how does the Efficacy [1] read?
A: The Efficacy was 100%.

Q: And the Efficacy [3]?
A: Its Efficacy is 100%.

Q: And the Efficacy [4]?
A: The Efficacy was 100%.

Q: What about the Efficacy [5] of the same compound?
A: The Efficacy was 100%.

Q: What about the logP [6] of the same compound?
A: Its logP is 3.58.

Q: What about the Efficacy [7] of the same compound?
A: Its Efficacy is 100%.

Q: For `Cn1nc(C(F)F)c(C(=O)N(CC2(Cc3ccccc3)CC3CCC2C3)C2CC2)c1F` (stereo not shown) [Example 69], which Efficacy [3] is on record?
A: The Efficacy was 100%.

Q: What about the Efficacy [4] of the same compound?
A: The Efficacy was 100%.

Q: And the Efficacy [5]?
A: The Efficacy was 100%.

Q: What about the logP [6] of the same compound?
A: Its logP is 4.91.

Q: And the Efficacy [7]?
A: Its Efficacy is 93%.

Q: What about the Efficacy [8] of the same compound?
A: Its Efficacy is 97%.

Q: With `CC(C1CC2CCC1C2)N(C(=O)c1c(C(F)F)nn(C)c1F)C1CC1` (stereo not shown) [Example 93] as the compound, how does the Efficacy [1] read?
A: Its Efficacy is 100%.

Q: What about the Efficacy [3] of the same compound?
A: The Efficacy was 100%.

Q: What about the Efficacy [4] of the same compound?
A: The Efficacy was 100%.

Q: And the Efficacy [5]?
A: The Efficacy was 83%.

Q: What about the logP [6] of the same compound?
A: Its logP is 4.01.

Q: What about the Efficacy [7] of the same compound?
A: Its Efficacy is 100%.

Q: For `Cn1cc(C(=O)N(C2CC2)C2CCCC3CCCC32)c(C(F)F)n1` (stereo not shown) [Example 20], which Efficacy [1] is on record?
A: The Efficacy was 78%.

Q: What about the Efficacy [2] of the same compound?
A: The Efficacy was 100%.

Q: And the Efficacy [3]?
A: The Efficacy was 95%.

Q: And the Efficacy [4]?
A: The Efficacy was 86%.

Q: And the Efficacy [5]?
A: Its Efficacy is 100%.

Q: And the logP [6]?
A: The logP was 3.48.

Q: What about the Efficacy [7] of the same compound?
A: The Efficacy was 100%.

Q: And the Efficacy [8]?
A: Its Efficacy is 96%.
